We go through one molecule from patent US9592214B2, “Compounds for the treatment of autism in a baby child” (INSERM (INSTITUT NATIONAL DE LA SANTE ET DE LA RECHERCHE …, priority 2010, dated 2017).

“Also recorded” adds a separate entry of the source.

In assay [1] the test system is hippocampal CA3 pyramidal neurons. The assay is described as follows: Whole-cell voltage clamp recordings of sEPSCs in offspring after maternal pretreatment. In kind it is in vivo, rat. As to conditions: P15 VPA rats, maternal bumetanide pretreatment; −70 mV; result in words. The protocol:
Standard whole-cell recordings were performed in coronal neocortical rat or mouse brain slices at room temperature (20-22° C.) from the soma of hippocampal CA3 neurons using an EPC-10 (HEKA Elektronik, Germany) amplifier and filtered at 3-10 kHz. The internal solution contained (in mM): 130 K-gluconate, 10 Na-gluconate, 4 NaCl, 4 MgATP, 4 phosphocreatine, 10 HEPES, and 0.3 GTP (pH 7.3 with KOH). Biocytin (final concentration 0.3-0.5%) was added to the pipette solution to label the neurons from which recordings were obtained. Neurons were visualized by using infrared DIC video microscopy. Spontaneous postsynaptic currents were recorded for […] at the reversal potentials for […] currents (−70 mV). It should be specifically noted that all recordings were made in normal ACSF (1.3 mM MgCl2). Stored data were analyzed using the Mini Analysis 6.0.3 (Synaptosoft Inc., Chapell Hill, N.C.) and Origin (MicroCal, Northampton, Mass.) software. To minimize potential sampling bias, the pups from at least three deliveries for each condition were studied. Data are expressed as mean±S.E.M.
Bumetanide (10 μM), Oxytocin (1 μM) and Isoguvacine (2 μM) were directly added to the perfusion solutions. Bumetanide pretreatment (2-2.5 mg/kg) was given to the dams in drinking water. All drugs used were purchased from Sigma. […]

In assay [2] the test system is Valproate rat model of autism. Nature of the assay: Isolation-induced ultrasonic vocalizations. In kind it is in vivo. The protocol:
(§1) Time-mated female Wistar rats at gestational day E7-8 were housed under standard laboratory conditions. The in utero valproic acid (VPA) rodent model of autism spectrum disorders has been previously described in detail. Briefly, the sodium salt of VPA (Sigma-Aldrich) was dissolved in physiological saline solution to a concentration of 300 mg/ml. Pregnant rats received a single intra-peritoneal dose of 600 mg/kg on gestational day 12 (E12). The control dams received a single similar volume injection of saline at the same gestational time-point. Dams were housed individually and allowed to raise their own litters. The offspring were used for experiments on embryonic day 20 (E20) and postnatal (P) days 0, 2, 4, 7, 15 and 30 (after being weaned at P23). Experiments were carried out on offspring of either sex.
To induce ultrasonic vocalizations, […], and were placed into an isolation box (23×28×18 cm) located inside a sound attenuating isolation cubicle (54×57×41 cm; Coulbourn Instruments, Allentown, Pa., USA), and evaluated for ultrasonic vocalizations during a three minutes test. An ultrasound microphone (Avisoft UltraSoundGate Condenser microphone capsule CM16/CMPA, Avisoft Bioacoustics, Berlin, Germany), placed in the roof of the box, was sensitive to frequencies of 10 to 250 kHz. Vocalizations were recorded using the Avisoft Recorder software (version 4.2) with a sampling rate of 250 kHz in 16 bit format. For acoustical analysis, recordings were transferred to SASLab Pro (version 5.2; Avisoft Bioacoustics) and a fast Fourier transformation was conducted (512 FFT-length, 100% frame, Hamming window and 75% time window overlap). The accuracy of call detection was verified manually by an educated user. A Pearson correlation coefficient was computed to assess the relationship between Automatic and Manual analysis. There was 0.99 correlation between the two variables.
(§2) Bumetanide (10 μM), Oxytocin (1 μM) and Isoguvacine (2 μM) were directly added to the perfusion solutions. Bumetanide pretreatment (2-2.5 mg/kg) was given to the dams in drinking water. All drugs used were purchased from Sigma. SSR126768A (Sanofi-Synthelabo) pretreatment (1 mg/kg) was given to the dams in drinking water.

The test system of assay [3] is Valproate rat model of autism. The assay is described as follows: In vivo EEG recordings in the CA3 area of hippocampus of head-restrained rats. The note with it: for Integral power spectra of EEG recordings, mean ± S.E.M.: VPA rats with maternal BUM pretreatment, P13-15. Here is the method:
as §1
Head-fixed rat pups of age P13-P15 were prepared for extracellular recording under isoflurane anesthesia. The skin and periosteum were removed from the skull, which was then covered by glue and dental cement except for a 4-9 mm^2 window above the somatosensory cortex from one or two hemispheres for the silicon probe penetration (4.0-4.2 mm lateral to midline and 2.2-2.5 mm caudal to bregma) and for the reference electrode (1.0-1.5 mm lateral to midline and 6.0-6.5 mm caudal to bregma). The rat was positioned in the stereotaxic apparatus. A 1 mm-diameter burr hole was drilled in the skull; the dura was cut and removed. Recordings were made 1 h after recovery from anesthesia. Pups were kept restrained for <3 h and were closely monitored for signs of stress and to ensure that they spent a normal proportion of their time sleeping. The outside temperature was maintained between 35 and 36° C. The animals were kept in low-light conditions throughout all experiments. 16-site linear silicone probe (NeuroNexus Technologies) coupled to a direct-current amplifier (Molecular Devices) and dunked previously in fluorescent dye (DiI, Invitrogen) was slowly penetrated via the hole at […] depth under the angle 30° in the coronal plane. EEGs were recorded during 2 hours, using a 16-channel amplifier (A-M System, Inc.) and digitized at 5 kHz using Axoscope software (Molecular Deviced). Recordings were amplified and high-pass filtered at 0.3 Hz in Axoscope. Silicone probe location was verified postmortem via dye localization. To quantify the frequency band integral power the traces were band-pass filtered at frequency bands […]) θ-(4-7 Hz), α-(7-12 Hz), β-(12-25 Hz), Low γ-(25-60 Hz), High γ-(60-120 Hz) and Fast oscillations-(120-500 Hz)). Fast Fourier Transform (FFT) was applied with Clampfit (Molecular Devices). Integrals of FFT power spectra were taken and averaged with OriginPro (OriginLab Corporation).
as §2

Assay [4] deals with hippocampal CA3 pyramidal cells. Nature of the assay: Acute application of bumetanide to hippocampal slices: DFGABA from cell-attached single GABAA channel recordings. It counts as cell-based, rat. The note with it: acute bumetanide 10 μM.
Method: Time-mated female Wistar rats at gestational day E7-8 were housed under standard laboratory conditions. […] The offspring were used for experiments on embryonic day 20 (E20) and postnatal (P) days 0, 2, 4, 7, 15 and 30 (after being weaned at P23). Experiments were carried out on offspring of either sex.
Hippocampal slices (300-500 nm thick) were prepared using a Microm tissue slicer (International GmbH, Germany) as described previously (Tyzio et al. 2006 Science 314, 1788; Tyzio et al, 2008, Eur J. Neurosci. 27(10):2515-28). Slices were kept in oxygenated (95% O2/5% CO2) artificial cerebrospinal fluid (ACSF) of the following composition (in mM): NaCl 126, KCl 3.5, CaCl2 2.0, MgCl2 1.3, NaHCO3 25, NaH2PO4 1.2 and glucose 11 (pH 7.4) at room temperature (20-22° C.) at least 1 hour before use.
For recordings, slices were placed into a conventional fully submerged chamber superfused with ACSF at a rate of 2-3 ml/min at room temperature. Patch clamp recordings from visually identified CA3 pyramidal cells in cell-attached configuration were performed using EPC-10 amplifier (HEKA Elektronik Dr. Schulze GmbH, Lambrecht/Pfalz, Germany). Patch pipette solution for recordings of single GABAA channels contained (in mM): NaCl 120, KCl 5, TEA-Cl 20, 4-aminopyridine 5, CaCl2 0.1, MgCl2 10, glucose 10, Hepes-NaOH 10 buffered to pH 7.2-7.3 and GABA 2 μM. Analysis of currents through single channels and current-voltage relationships were performed using Clampfit 9.2 (Axon Instruments, Union City, Calif.). Recordings were digitized (10 kHz) online with Digidata-1200 interface card (Axon Instruments, Union City, Calif.) and analyzed offline with Axon package, MiniAnalysis (S (Synaptsoft, Decatur, Ga.), and Origin (Microcal Software, Northampton, Mass.).
Bumetanide (10 μM), Oxytocin (1 μM) and Isoguvacine (2 μM) were directly added to the perfusion solutions. […] All drugs used were purchased from Sigma.
Setting [5] is: P4 VPA rats + maternal BUM pretreatment.
[6] abbreviates: P4 control rats + maternal BUM pretreatment.

Turning to `CCCCNc1cc(C(=O)O)cc(S(N)(=O)=O)c1Oc1ccccc1` [bumetanide], the sEPSCs frequency result in assay [1] was “decreases; also recorded: significantly reduced”. The “behavioral deficit (smaller number and shorter total duration of calls)” value in assay [2] (P4 VPA offspring, maternal bumetanide pretreatment, result in words) was “rescued this behavioral deficit”. Also, the “Number of calls, isolation-induced USVs mean ± S.E.M” value is listed as 56 ± 25 (n = 20) in assay [2] (setting [5]) and 62.6 ± 27.4 (n = 18) in assay [2] (setting [6]). The “Total duration of calls, isolation-induced USVs mean ± S.E.M” value is on record as 4 ± 2 (n = 20) in assay [2] (setting [5]) and 4.6 ± 2.3 (n = 18) in assay [2] (setting [6]). In addition, the “EEG oscillatory hyperactivity and power of network oscillations” value in assay [3] (P13-P15 VPA offspring, maternal bumetanide pretreatment, result in words) is “abolished hyperactivity and restored physiological values”. For the same molecule, the “Integral power spectra of EEG recordings, mean ± S.E.M.” value in assay [3] (frequency band 0.5-4 Hz) turned out to be 88.53 ± 27.57; in assay [3] (frequency band 4-7 Hz), 15.40 ± 4.25; in assay [3] (frequency band 7-12 Hz) it was 7.09 ± 1.56; in assay [3] (frequency band 12-25 Hz), 6.35 ± 1.52; in assay [3] (frequency band 25-60 Hz), 0.97 ± 0.20; in assay [3] (frequency band 60-120 Hz), 0.32 ± 0.06. The “Integral power spectra of EEG recordings, mean ± S.E.M.” value in assay [3] (frequency band 120-500 Hz) is given as 1.18 ± 0.19. Further, the “[Cl−]i” value in assay [4] (P0 VPA neurons, result in words) is reported as “significantly decreased”. The “DFGABA mV), mean±” value is −2.4 ± 1.2 (n = 21) mV in assay [4] (P0 VPA rats) and −5.3 ± 0.7 (n = 17) mV in assay [4] (P0 control rats).
